Among the test systems are RPMI-8226 leukemia; SF-268 CNS; U251 CNS; NCI/ADR-RES ovarian; HS 578T breast; SF-295 CNS; MDA-N; UACC-62 melanoma; SF-539 CNS; HCT-116 colon; HOP-92 NSCLC; DU-145 prostate; EKVX NSCLC.
Experiment in all cases: NCI tumour cell line growth inhibition, 48 h

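The compound was tested at five concentrations on cells cultured in 96-well plates, with a 48-hour exposure period. The concentration for 50% growth inhibition is given as GI50. Definition used: TGI = concentration required for complete inhibition of growth.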

From PubChem BioAssay (NCI) come the findings set out here.

With `O=[S@]1c2ccc3ccccc3c2N[C@@H]2[C@H]1[C@H]1C=C[C@@H]2C1`, the TGI in the assay with RPMI-8226 leukemia was more than 100 µM; in the assay on SF-268 CNS it was more than 100 µM; with U251 CNS, more than 100 µM; in the assay with NCI/ADR-RES ovarian, 99.7 µM; with HS 578T breast, more than 100 µM; in the assay on SF-295 CNS it was more than 100 µM. In addition, the TGI in the assay on MDA-N is 60.8 µM; with UACC-62 melanoma it was more than 100 µM; with SF-539 CNS it was more than 100 µM; with HCT-116 colon it was more than 100 µM; with HOP-92 NSCLC, more than 100 µM; in the assay with DU-145 prostate it was more than 100 µM. In the assay on EKVX NSCLC, this compound showed a TGI of more than 100 µM.

Take `COc1ccccc1C(O)[C@@H]1C[C@@H]2[C@H]3CC[C@@](C)([C@@H]2O1)C3(C)C` (stereo not given in full): the TGI in the assay on RPMI-8226 leukemia stood at 78.7 µM; in the assay with SF-268 CNS, 58 µM; in the assay with U251 CNS it was 32.1 µM; with NCI/ADR-RES ovarian, 42 µM; in the assay with HS 578T breast, 35.3 µM; in the assay on SF-295 CNS it was 34.6 µM. Further, the TGI in the assay with MDA-N is 32 µM; in the assay with UACC-62 melanoma, 32.8 µM; with SF-539 CNS it was 24.2 µM; in the assay on HCT-116 colon, 43.1 µM; in the assay on HOP-92 NSCLC it was 30.7 µM; in the assay on DU-145 prostate, 49.6 µM. The compound also showed a TGI with EKVX NSCLC of more than 100 µM.

Regarding `O=C(/C=C/c1ccccc1)Nc1ccccc1SCCCCl`, the TGI with RPMI-8226 leukemia was more than 100 µM; in the assay on SF-268 CNS it was more than 100 µM; with U251 CNS, more than 82.8 µM; in the assay on NCI/ADR-RES ovarian it was 35.1 µM; in the assay with HS 578T breast it was more than 29.3 µM; in the assay with SF-295 CNS it was 49.4 µM. The TGI in the assay with MDA-N was 28.6 µM; in the assay on UACC-62 melanoma, more than 72.7 µM; in the assay with SF-539 CNS it was 39.8 µM; in the assay on HCT-116 colon, 39.1 µM; in the assay on HOP-92 NSCLC, more than 30.9 µM; in the assay on DU-145 prostate, more than 100 µM. This compound also had a TGI in the assay on EKVX NSCLC of more than 100 µM.

Take `CCOC(=O)/C=C(/C(=O)OCC)n1ccc(=O)n(Cc2cnnn2COCCOC(C)=O)c1=O`: the TGI is 51.2 µM in the assay with RPMI-8226 leukemia; 44.4 µM in the assay on SF-268 CNS; 37.8 µM in the assay with U251 CNS; 61.9 µM in the assay on NCI/ADR-RES ovarian; 56.7 µM in the assay with HS 578T breast; more than 100 µM in the assay on SF-295 CNS. The TGI in the assay on MDA-N amounted to 46.3 µM; in the assay on UACC-62 melanoma it was 32.8 µM; in the assay with SF-539 CNS, 25.7 µM; in the assay on HCT-116 colon, 45.8 µM; with HOP-92 NSCLC, 6.81 µM; with DU-145 prostate it was 42.9 µM. In the assay on EKVX NSCLC, the TGI was determined as 33.8 µM.

With `Cc1ccc2c(=O)cc(-c3ccc4ccccc4c3)[nH]c2n1`, the TGI was 19.5 µM with RPMI-8226 leukemia; more than 100 µM in the assay on SF-268 CNS; more than 100 µM with U251 CNS; 48.5 µM in the assay on NCI/ADR-RES ovarian; 20 µM with HS 578T breast; 39.6 µM in the assay with SF-295 CNS. For the same compound, the TGI with MDA-N is 4.69 µM; in the assay with UACC-62 melanoma, 24.1 µM; with SF-539 CNS, 54.1 µM; with HCT-116 colon it was 87.9 µM; in the assay on HOP-92 NSCLC it was 7.7 µM; in the assay on DU-145 prostate, more than 100 µM. The same compound had a TGI with EKVX NSCLC of more than 100 µM. The GI50 is 4.57 µM in the assay on U251 CNS, 3.8 µM with SF-295 CNS, 1.94 µM in the assay with MDA-N and 4 µM in the assay on HCT-116 colon.

As for `COc1ccc(N=NC(=O)NC(CC(C)C)C(=O)NCC(=O)O)cc1` (stereo not given), the TGI in the assay with RPMI-8226 leukemia, in the assay with SF-268 CNS, with U251 CNS, in the assay with NCI/ADR-RES ovarian, in the assay on HS 578T breast and in the assay on SF-295 CNS was more than 100 µM throughout. In addition, the TGI in the assay with MDA-N was more than 100 µM; with UACC-62 melanoma it was more than 100 µM; with SF-539 CNS it was 29.7 µM; with HCT-116 colon it was more than 100 µM; in the assay with HOP-92 NSCLC it was more than 100 µM; with DU-145 prostate it was more than 100 µM. The TGI with EKVX NSCLC is more than 100 µM.

Consider `CCC1(c2ccc(N3C(=O)c4cc(OC)c(OC)cc4C3=O)cc2)CCC(=O)NC1=O` (stereo not given), for which the TGI in the assay on RPMI-8226 leukemia, with SF-268 CNS, in the assay with U251 CNS, in the assay with NCI/ADR-RES ovarian, in the assay on HS 578T breast and in the assay on SF-295 CNS was more than 10 µM in each case. In addition, the TGI in the assay with MDA-N, with UACC-62 melanoma, in the assay on SF-539 CNS, in the assay on HCT-116 colon, with HOP-92 NSCLC and with DU-145 prostate was more than 10 µM each time. This compound gave a TGI in the assay on EKVX NSCLC of more than 10 µM.

For `CCCCc1ccc(Nc2nc(OC)c3ncn(C4CC(O)C(CO)O4)c3n2)cc1` (stereo not given), the TGI in the assay on RPMI-8226 leukemia is 71.9 µM; in the assay on SF-268 CNS, 34.5 µM; with U251 CNS, 40 µM; with NCI/ADR-RES ovarian it was 65.6 µM; in the assay on HS 578T breast, 42 µM; in the assay on SF-295 CNS, 36.5 µM. For the same compound, the TGI in the assay on MDA-N stood at 30 µM; in the assay on UACC-62 melanoma, 33.8 µM; in the assay on SF-539 CNS, 29 µM; in the assay with HCT-116 colon, 29.8 µM; in the assay on HOP-92 NSCLC, 5.03 µM; in the assay with DU-145 prostate, 37.3 µM. This compound also gave a TGI with EKVX NSCLC of 6.08 µM.

Turning to `CC(C)(Cl)C(Br)CCC(Br)(CCl)C(Cl)CBr` (stereo not given), the TGI in the assay with RPMI-8226 leukemia, in the assay on U251 CNS, in the assay with NCI/ADR-RES ovarian, with HS 578T breast, with SF-295 CNS and in the assay with MDA-N was more than 10 µM each time. The TGI in the assay on SF-539 CNS, in the assay with HOP-92 NSCLC, in the assay on DU-145 prostate and with EKVX NSCLC was more than 10 µM in each case.

Regarding `Nc1nc(NCCCO)cc(=O)[nH]1`, the TGI in the assay with RPMI-8226 leukemia, in the assay with SF-268 CNS, in the assay with U251 CNS, with NCI/ADR-RES ovarian, in the assay on HS 578T breast and in the assay on SF-295 CNS was more than 100 µM in each case. Besides, the TGI in the assay on MDA-N, in the assay on UACC-62 melanoma, with HCT-116 colon, with HOP-92 NSCLC, in the assay with DU-145 prostate and with EKVX NSCLC was more than 100 µM each time.
